Reference: the supplement of paper PMC11997997

Columns and labels:
[1] = test system: Mycobacterium tuberculosis CDC1551 (intracellular, in murine BMDM); assay: area under intracellular growth-inhibition dose-response curve (AUC (% inhibition x dose, relative)); higher = more potent; details: duration: 6 days; dose range: 0.13-80 uM, 8 points
In short: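 The value is the area under the growth-inhibition dose–response curve, calculated in GraphPad Prism. Primary murine bone marrow-derived macrophages were seeded in 384-well opaque plates and, 24 h later, infected for 1 h with luciferase-expressing M. tuberculosis CDC1551 at multiplicity of infection 1. Cells were then exposed for 6 days to an 8-dose, 2.5-fold series (final 80–0.13 μM). Growth was read with the Bright-Glo luciferin assay and normalised to a reference drug control and to the lowest-concentration wells.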

[2] = test system: murine bone marrow-derived macrophages; assay: area under cytotoxicity dose-response curve (AUC (% cytotoxicity x dose, relative)); higher = more cytotoxic; details: duration: 6 days; dose range: 0.13-80 uM, 8 points
In short: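 Values are the area under the cytotoxicity dose–response curve, calculated with GraphPad Prism version 10. Primary murine bone marrow-derived macrophages were exposed to final concentrations of 80–0.13 μM for 6 days, and viability was read by CellTiter-Glo luminescence with normalisation to vehicle and positive control wells.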

SMILES | area under intracellular growth-inhibition dose-response curve [1] | area under cytotoxicity dose-response curve [2]
O=[N+]([O-])c1[c][c]c(Sc2[c][c][c][c][n+]2[O-])c2nonc12 | 48.7 | 119
On1c(-c2ccc(Cl)cc2)nc2ccccc21 | 63.1 | 124
Cc1cc(C)cc(NC(=O)NC2CCCCCCC2)c1 | 198 | 109
Cn1cc(/C=N/NC(N)=S)c2ccccc21 | 275 | < 0
On1c(-c2ccccc2)nc2ccccc21 | 28.6 | < 0
O=C(CSc1nc2ccccc2s1)NCc1cc([N+](=O)[O-])ccc1O | 39.4 | 48
O=[N+]([O-])c1ccc(CN2CCN(c3ccc(F)cc3)CC2)o1 | 245 | < 0
COc1cc2c(cc1OC)CN(C(=O)c1ccc([N+](=O)[O-])o1)CC2 | 101 | 37
O=C(CSc1nc2ccccc2nc1N1CCOCC1)N1CCN(c2ccccc2)CC1 | 199 | 22.9
CCOC(=O)c1ccccc1NC(=O)c1c(F)c(F)c(F)c(F)c1F | 183 | < 0
CCOC(=O)CCCc1ccc(/C(C)=N/NC(N)=S)cc1 | 156 | 65.1
Cc1ccc(/C=N/NC(=O)c2ccncc2)o1 | 213 | 78.6
Cc1ccccc1NC(=O)COC(=O)c1cc(S(=O)(=O)N2CCOCC2)ccc1C | 34.5 | 23.2
CCc1nnc(NS(=O)(=O)c2ccc(N/C=C3/C(=O)NC(=O)N(c4ccccc4)C3=O)cc2)s1 | 31 | 38
Cc1ccc(C)c(-c2nnc(NC(=O)c3ccc([N+](=O)[O-])o3)o2)c1 | 62 | 128
O.Sc1[nH]cnc2ncnc1-2 | 140 | < 0
O=C(NNC(=S)Nc1ccc(C(=O)O)c(O)c1)c1ccncc1 | 170 | 30.7
O=C(CSc1ccc(Cl)cc1)NNC(=O)c1ccncc1 | 241 | 107
C/C(Cn1cnc([N+](=O)[O-])n1)=N/NC(=O)COc1c(Cl)cc(Cl)cc1Cl | 196 | < 0
CC(C)(C)c1ccc(OCCNC(=O)c2nc[nH]n2)cc1 | 233 | < 0
O=C(Cn1c(=O)cnc2ccccc21)Nc1cccc(S(=O)(=O)N2CCOCC2)c1 | 23.9 | 30.4

SMILES | area under intracellular growth-inhibition dose-response curve [1] | area under cytotoxicity dose-response curve [2]
Cc1ccc(-n2c(C)cc(/C=N/NC(N)=S)c2C)cc1 | 233 | 26
O=c1cc(-c2c(F)c(F)c(F)c(F)c2F)oc2ccccc12 | 122 | 11.4
Cc1[nH]c2ccccc2c1/C=N/NC(N)=S | 131 | 102
COC(=O)c1sccc1NC(=O)c1c(F)c(F)c(F)c(F)c1F | 158 | 12.8
Cc1ccc2[nH]c(/C(C#N)=C\c3ccc([N+](=O)[O-])o3)nc2c1 | 8.24 | 76.5
NC1=NC[C@@H](CC2CCCCC2)N1CCc1cc(C(F)(F)F)cc(C(F)(F)F)c1 | 52.6 | 109
Cc1nnc(SCC2=C(C(=O)O)N3C(=O)C(NC(=O)Cn4nc(C(F)F)cc4C)C3SC2)s1 (centres undefined) | 215 | < 0
CCc1ccc([C@@H]2CC=C(C(=O)O)[C@H](c3ccc(C(C)(C)C)cc3)N2S(=O)(=O)c2ccc(C)cc2)cc1 | 84.8 | 78.6
CCCCC(=O)NCc1ccc(F)cc1 | 199 | < 0
CCOc1ccc(NC(=O)CCc2nnc3ccc(N4CCC(C)CC4)nn23)cc1 | 30.4 | 65.6
COc1ccc(CCNC(=O)c2ccc(Cl)cc2)cc1 | 241 | < 0
CCC(NC(=O)Nc1nnc(C(F)(F)F)s1)(C(F)(F)F)C(F)(F)F | 143 | 14.5
C/C(CC(=O)Nc1ccc(N(C)C)cc1)=N\NC(=O)c1ccncc1 | 219 | 20.2
CC1=CCCC(C)(C)C1/C=C/C(C)=N/NC(=O)c1ccncc1 (centres undefined) | 247 | < 0
CCOC(=O)c1c(C)nc2ccc(C)cn12 | 155 | 24.3
O=C(CSc1ccccc1F)NNC(=O)c1ccncc1 | 230 | 38.8
COc1ccc(-c2c(C)cc3oc(=O)cc(-c4ccccc4)c3c2C)cc1 | 154 | 33.9
Cc1ccccc1OCC(=O)NC(=S)Nc1ccc(N2CCCC2)cc1 | 182 | 105
Nc1ccc(C(=O)[O-])c(O)c1.O.[Na+] | 184 | 0.704
Cc1nnc(SCC2=C(C(=O)O)N3C(=O)C(NC(=O)Cn4ncc(Cl)c4C)C3SC2)s1 (centres undefined) | 245 | 66.2
CC(=NNC(=O)c1ccncc1)c1cccc(Cl)c1 | 258 | < 0

SMILES | area under intracellular growth-inhibition dose-response curve [1] | area under cytotoxicity dose-response curve [2]
CC(NC(=O)Nc1ccc(Br)cc1)C(C)(C)C (centres undefined) | 228 | 55.3
CC1CCc2c(N3CCC(O)CC3)c(F)cc3c(=O)c(C(=O)O)cn1c23 (centres undefined) | 162 | 67
O=C(N/N=C/c1ccccc1C(=O)O)c1ccncc1 | 266 | 37.2
NC(=S)N/N=C1\CCOc2ccc(F)cc21 | 232 | < 0
Cc1ccc(S(=O)(=O)N2CCOCC2)cc1C(=O)OCC(=O)NC1CC1 | 97.3 | 7.09
CCCc1cc(C(=O)NCc2cccs2)no1 | 192 | < 0
O=C(NCc1ccco1)c1cc2ccccc2o1 | 105 | 135
C/C(=N\NC(N)=S)c1ccc(Cl)s1 | 263 | < 0
CC(C)c1ccc(NC(=O)NC2CCCCC2)cc1 | 185 | 66.5
CC(=O)c1cc(NC(=O)c2cccc(C(F)(F)F)c2)c(=O)oc1/C=C/N(C)C | 194 | 64.4
COc1cc(C(=O)Nc2cc(S(=O)(=O)N3CCOCC3)ccc2N2CCOCC2)ccc1OC(F)F | 44.6 | < 0
CC(=O)N1CCN(S(=O)(=O)c2cccc(C(=O)Nc3ccccc3N3CCCCC3)c2)CC1 | < 0 | 21.9
Cc1cc(C(=O)N/N=C/c2ccc([N+](=O)[O-])o2)c(C)o1 | 142 | 105
NC(=S)N/N=C/c1ccc(-n2nncc2-c2ccc(Cl)cc2)cc1 | 216 | 47.7
CC(C)C(=O)N1CCN(c2ccc(NC(=O)c3ccc([N+](=O)[O-])o3)cc2)CC1 | 64.2 | 84.2
O=C(NCC1CCCO1)c1csc2c1CCCCC2 (centres undefined) | 143 | 19.4
O=C(Nc1ccc(NC(=S)NC(=O)c2cccs2)cc1)c1ccccc1 | 244 | 33.4
Cc1nnc(SCC2=C(C(=O)O)N3C(=O)C(NC(=O)Cn4cnnn4)C3SC2)s1 (centres undefined) | 138 | 100
Cc1nnc(SCC2=C(C(=O)O)N3C(=O)C(NC(=O)C(C)n4nc(C(F)(F)F)cc4C)C3SC2)s1 (centres undefined) | 176 | 2.61
COC(=O)c1ccc2nc(C)cc(Nc3ccc(N(C)C)cc3)c2c1.Cl | 243 | < 0
